Counter-ions that a name gives are not always drawn.
How the values were obtained:
[1] = system: N. gonorrhoeae ATCC 49226; test: MIC by micro-broth dilution against N. gonorrhoeae ATCC 49226; type: cell-based, Neisseria gonorrhoeae; details: Neisseria gonorrhoeae, ATCC49226; ATCC 49226, micro-broth dilution, 20-24 hours
Experimental: (§1) Minimum Inhibitory Concentrations of GUMBOS against N. gonorrhoeae: Clinical isolates of N. gonorrhoeae and N. gonorrhoeae ATCC 49226 were obtained from Louisiana State University Health Sciences Center New Orleans HIV Outpatient Clinic. Minimum inhibitory concentrations (MICs) of GUMBOS, constituent parent drugs, azithromycin, and unreacted mixtures were determined using micro-broth dilution in 96-well plates. […] Stock solutions were diluted to a known working concentration and 100 μL were added to the first row of the plate. For susceptibility testing of N. gonorrhoeae, media was prepared according to methods reported by Wade and […]. Euro. Microbiol. Soc. Microbiol. […] This liquid medium allowed dense growth of N. gonorrhoeae for use in broth dilution tests. Protein-free liquid media (100 μL) were added to each well and two-fold dilutions were performed. The antibiotic containing wells were inoculated with an equal volume of bacterial inoculum matching a 0.5 McFarland standard. […] The lowest concentration of antibiotic that prevents growth is the MIC.

[2] = system: clinical isolates of N. gonorrhoeae; test: MIC by micro-broth dilution against N. gonorrhoeae clinical isolates; type: cell-based, Neisseria gonorrhoeae; details: Neisseria gonorrhoeae
Experimental: as §1

[3] = MTT cytotoxicity assay of ceftriaxone-based GUMBOS; type: cell-based; details: human, HeLa cells, read-out: Acute cytotoxicity (IC50)
Experimental: Cytotoxicity Assay of GUMBOS: Cytotoxicity of GUMBOS, unreacted mixtures, and antiseptics towards healthy cells were evaluated using the MTT assay, a colorimetric dye assay, according to manufacturer's instructions. […] Stock solutions of antimicrobial agents in cell medium (1% MeOH) were diluted to a known working concentration, doubly diluted, and transferred to seeded cells. […] Cells treated with only DMEM were used as a negative control. After incubation, 15 μL of MTT were added to each well and cells were further incubated for an hour. Sodium dodecyl sulfate dimethylformamide solution was added after this additional incubation time in order to dissolve the purple formazan crystals. Cell viability was quantified at 570 nm using a microplate spectrophotometer (Eppendorf PlateReader AF2200, Hauppauge, NY). Cell viability as a percentage was determined as the ratio between treated cells and untreated (control) cells taken as 100%.

[4] = system: N. gonorrhoeae ATCC 49226; test: Kirby-Bauer disc diffusion against N. gonorrhoeae ATCC 49226; type: cell-based, Neisseria gonorrhoeae; details: for Zone size, mm (±SD): ATCC 49226, disc diffusion, 20-24 h
Experimental: (§2) Antimicrobial susceptibility testing: Kirby-Bauer disc diffusion susceptibility tests were used to determine zones of inhibition (ZOIs) for N. gonorrhoeae (ATCC 49226) and three clinical isolates obtained from Louisiana State University Health Sciences Center New Orleans HIV Outpatient Clinic. Kirby-Bauer disc diffusion is one of the CDC's preferred methods of testing the susceptibility of N. gonorrhoeae. Testing was performed according to CLSI recommended procedures. In this susceptibility test, 6 mm diameter blank paper discs were impregnated with known quantities of antimicrobial drug followed by evaporation of solvent; however, ceftriaxone, azithromycin and doxycycline antimicrobial susceptibility discs were purchased from Thermo Fisher Scientific. Impregnated discs were placed onto prepared nutrient agar plates that were inoculated with N. gonorrhoeae to give a confluent lawn of growth. Suspensions of these various strains were prepared in accordance with a 1.0 McFarland standard. Inoculated agar plates were incubated for 20-24 h at 37° C. in a 5% CO2 atmosphere.
(§3) Blank discs were loaded with 50 nmol of GUMBOS, respective constituent compounds and equivalent stoichiometric unreacted mixtures of octenidine and carbenicillin that are equimolar to the purchased ceftriaxone discs (Oxoid™, Thermo Fisher). After 20-24 h incubation, diameters of ZOIs were measured using a ruler. […] Antibacterial activity was improved for octenidine when chloride ions were exchanged for the antibiotic. […] This effect was not seen, however, for an unreacted mixture of the two drugs for either N. gonorrhoeae (ATCC 49226) or clinical isolates. The ZOIs of octenidine/carbenicillin were also larger than or equal to azithromycin and doxycycline ZOIs for N. gonorrhoeae (ATCC 49226). […] This is significant as resistance rates for azithromycin have increased worldwide. Among 57 countries reporting on azithromycin susceptibility, 28 (49%) reported>5% resistance. […] Ceftriaxone produced large ZOIs as the clinical population still remains susceptible to it in the USA (only 0.2% of isolates had elevated resistance to ceftriaxone in 2017).

[5] = system: N. gonorrhoeae clinical isolates; test: Kirby-Bauer disc diffusion against N. gonorrhoeae clinical isolates; type: cell-based, Neisseria gonorrhoeae; details: three clinical isolates, 20-24 h
Experimental: as §2, §3

[6] = MTT cytotoxicity assay of octenidine/carbenicillin GUMBOS; type: cell-based; details: human
Experimental: (§4) Cytotoxicity assay: To determine cell viability, a colorimetric MTT dye assay (Promega Corp., Madison, WI, USA) was used, employing the manufacturer's instructions, as an indicator of cytotoxicity of GUMBOS towards healthy (HeLa) cells. Hela cells (ATCC CCL-2) grown in DMEM-reduced serum supplemented with 10% FBS were plated at a density of 1% 10^5 cells/mL (10^4 cells/well) in 96-well plates. Concentrations of therapeutic agents up to 500 μM (1% MeOH or DMSO) were doubly diluted in cell culture media and transferred to seeded cells. Cells were incubated for 15 min and 60 min at 37° C. in a 5% CO2 atmosphere. Cells treated with medium alone served as a negative control. At the end of the incubation period, 15 μL of MTT was added to each well and incubation continued for another hour. Absorbance was measured at 570 nm in a microplate spectrophotometer. All experiments were performed in quadruplicate. Cell viability as a percentage was determined as the ratio between treated cells and untreated (control) cells (taken as 100%).

HeLa cells = test: as above; type: cell-based; details: HeLa; for Relative toxicity to cervical cells (in words): after 15 min of incubation
Experimental: as §4

[7] = according to Hansch et al (1995); cited from earlier work
[8] = Parallel Artificial Membrane Permeability Assay (PAMPA); type: in vitro ADME
Experimental: Predictive intestinal permeability: PAMPA was employed as an in vitro model of passive, transcellular permeation. In this technique, a 96-well microtiter plate is used as a donor plate and a membrane/acceptor compartment coated with structured tri-layers of phospholipids is placed on top; this configuration is referred to as ‘sandwiched’. Known concentrations of octenidine/carbenicillin (100 μM in 1×PBS, 0.25% DMSO) were added to the donor plate while only buffer was placed in the acceptor plate. The assay was incubated for 5 h at room temperature and the acceptor plate was measured using a UV/Vis spectroscopy plate reader (Eppendorf PlateReader AF2200). Permeability coefficients (Pe) were calculated based on initial concentration in donor well (C0), concentration in donor well at 5 h (CD), concentration in acceptor well at 5 h (CA), volumes of donor (VD) and acceptor wells (VA), well filter area (A, 0.3 cm^2) and incubation time (t, 18000 s), as calculated using the relationship in Equation 1.

SMILES: CCCCCCCCN=c1ccn(CCCCCCCCCCn2ccc(=NCCCCCCCC)cc2)cc1 [Octenidine dihydrochloride, octenidine dihydrochloride]
- MIC [1]: 3.1 µM
- MIC [2]: 4.7 ± 1.8 µM
- IC50 at 15 min ([3]; 15 min): 55 ± 1.29 µM
- IC50 at 60 min ([3]; 60 min): 25.9 ± 1.17 µM
- Zone size, mm (±SD) [4]: 9 ± 1 mm
- Zone size, mm (±SD) [5]: 9 ± 0.3 mm
- IC50 at 15 min [6]: 37.4 ± 2.8 µg/mL
- IC50 at 60 min [6]: 16.1 ± 0.7 µg/mL
- Relative toxicity to cervical cells (in words) (HeLa cells): most toxic

SMILES: [H]/N=C(\N/C(=N/[H])NCCCCCCNC(=N)NC(=N)Nc1ccc(Cl)cc1)Nc1ccc(Cl)cc1 [chlorhexidine]
- Log P [7]: 0.08

SMILES: CC1(C)S[C@@H]2[C@H](NC(=O)C(C(=O)[O-])c3ccccc3)C(=O)N2[C@H]1C(=O)[O-].CCCCCCCCNc1cc[n+](CCCCCCCCCC[n+]2ccc(NCCCCCCCC)cc2)cc1 [[OCT][CAR], octenidine/carbenicillin]
- Permeability class [8]: high permeability (Pe values that are greater than 1.5% 10 cm/s are defined as high permeability)
- Mean effective Pe (permeability coefficient) ([8]; 100 μM in 1×PBS, 0.25% DMSO, 5 h, room temperature): 3.78×10^−6 (±0.85) cm/s
- Zone size, mm (±SD) [4]: 40 ± 0.6 mm
- Combination effect on antibacterial activity ([4]; N. gonorrhoeae (ATCC 49226) and clinical isolates, disc diffusion): additive effect
- Antibacterial activity relative to azithromycin ([4]; disc diffusion ZOIs): bioequivalent to azithromycin
- Zone size, mm (±SD) [5]: 37 ± 4 mm
- Cytotoxicity towards cervical cells (in words) (HeLa cells): non-toxic towards cervical cells
- Relative toxicity to cervical cells (in words) (HeLa cells): lower toxicity than the stoichiometric, unreacted mixture
